PubChem BioAssay AID248 (DTP/NCI, 2004)
Inconclusive results and toxic doses are left out.

Tested on: L1210 leukemia ip in BDF1 mice, survival T/C
Assay: NCI In Vivo Anticancer Drug Screen. Data for tumor model L1210 Leukemia (intraperitoneal) in B6D2F1 (BDF1) mice
Settings: endpoint: mean survival time, higher = longer survival
Summary of the method: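 Tumor cells were implanted, animals were treated, and survival was followed. The result divides the treated measurement by the vehicle-control measurement.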

[1] = dose: 100.0 mg/kg/injection, schedule: Q01DX001 (ip), vehicle: carboxymethylcellulose (CMC)
[2] = dose: 200.0 mg/kg/injection, schedule: Q01DX001 (ip), vehicle: carboxymethylcellulose (CMC)
[3] = dose: 100.0 mg/kg/injection, schedule: Q01DX009 (ip), vehicle: saline with Tween-80
[4] = dose: 200.0 mg/kg/injection, schedule: Q01DX009 (ip), vehicle: saline with Tween-80
[5] = dose: 400.0 mg/kg/injection, schedule: Q01DX009 (ip), vehicle: saline with Tween-80
[6] = dose: 50.0 mg/kg/injection, schedule: Q01DX009 (ip), vehicle: saline
[7] = dose: 100.0 mg/kg/injection, schedule: Q01DX001 (ip), vehicle: saline
[8] = dose: 100.0 mg/kg/injection, schedule: Q01DX009 (ip), vehicle: saline
[9] = dose: 200.0 mg/kg/injection, schedule: Q01DX001 (ip), vehicle: saline
[10] = dose: 200.0 mg/kg/injection, schedule: Q01DX009 (ip), vehicle: saline
[11] = dose: 100.0 mg/kg/injection, schedule: Q04DX003 (ip), vehicle: Klucel (hydroxypropylcellulose) (HPC)
[12] = dose: 200.0 mg/kg/injection, schedule: Q04DX003 (ip), vehicle: Klucel (hydroxypropylcellulose) (HPC)
[13] = dose: 400.0 mg/kg/injection, schedule: Q04DX003 (ip), vehicle: Klucel (hydroxypropylcellulose) (HPC)
[14] = dose: 100.0 mg/kg/injection, schedule: Q04DX003 (ip), vehicle: saline with Tween-80
[15] = dose: 200.0 mg/kg/injection, schedule: Q04DX003 (ip), vehicle: saline with Tween-80
[16] = dose: 400.0 mg/kg/injection, schedule: Q04DX003 (ip), vehicle: saline with Tween-80
[17] = dose: 400.0 mg/kg/injection, schedule: Q01DX001 (ip), vehicle: saline

For `O=C(O)C(CSC(c1ccccc1)c1ccccc1)N1C(=O)c2ccccc2C1=O` (configuration not stated), the T/C (dose: 75.0 mg/kg/injection, schedule: Q01DX009 (ip), vehicle: Klucel (hydroxypropylcellulose) (HPC)) was 102 % of control, the T/C (dose: 75.0 mg/kg/injection, schedule: Q04DX003 (ip), vehicle: Klucel (hydroxypropylcellulose) (HPC)) was 97 % of control and the T/C (dose: 150.0 mg/kg/injection, schedule: Q01DX009 (ip), vehicle: Klucel (hydroxypropylcellulose) (HPC)) was 98 % of control. For the same compound, the T/C (dose: 150.0 mg/kg/injection, schedule: Q04DX003 (ip), vehicle: Klucel (hydroxypropylcellulose) (HPC)) was 109 % of control, the T/C (dose: 300.0 mg/kg/injection, schedule: Q01DX009 (ip), vehicle: Klucel (hydroxypropylcellulose) (HPC)) was 104 % of control and the T/C (dose: 300.0 mg/kg/injection, schedule: Q04DX003 (ip), vehicle: Klucel (hydroxypropylcellulose) (HPC)) was 94 % of control.

For `CCCCCCCCCCCCCCCCn1cnc2c(N)ncnc21`, the T/C (dose: 12.5 mg/kg/injection, schedule: Q01DX005 (ip), vehicle: other) was 104 % of control, the T/C (dose: 25.0 mg/kg/injection, schedule: Q01DX005 (ip), vehicle: other) was 96 % of control and the T/C (dose: 50.0 mg/kg/injection, schedule: Q01DX005 (ip), vehicle: other) was 101 % of control. The T/C (dose: 100.0 mg/kg/injection, schedule: Q01DX005 (ip), vehicle: other) was 96 % of control and the T/C (dose: 200.0 mg/kg/injection, schedule: Q01DX005 (ip), vehicle: other) was 95 % of control.

In the case of `Cc1ccnc(NS(=O)(=O)c2ccc(N=Nc3cc(N=Nc4ccccc4)c(N)nc3N)cc2)n1`, the T/C [1] is reported as 105 % of control and the T/C [2] is reported as 102 % of control.

With `CCCCOC(=O)/C=C/C(=O)OCCCC` the T/C [3] was 97 % of control, the T/C [4] was 101 % of control and the T/C [5] was 111 % of control.

`CS(=O)(=O)OC[C@H](OS(=O)(=O)O)[C@H](COS(C)(=O)=O)OS(=O)(=O)O` was tested, and the T/C [6] was 106 % of control, the T/C (dose: 50.0 mg/kg/injection, schedule: Q04DX003 (ip), vehicle: saline) was 89 % of control and the T/C [7] was 89 % of control. For the same compound, the T/C [8] was 95 % of control, the T/C (dose: 100.0 mg/kg/injection, schedule: Q04DX003 (ip), vehicle: saline) was 96 % of control and the T/C [9] was 95 % of control. The T/C [10] was 98 % of control and the T/C (dose: 200.0 mg/kg/injection, schedule: Q04DX003 (ip), vehicle: saline) was 91 % of control.

With `CCC(=O)c1ccc(NC(=O)Nc2ccc(C(=O)CC)cc2)cc1` the T/C (dose: 20.0 mg/kg/injection, schedule: Q01DX009 (ip), vehicle: saline) was 96 % of control, the T/C (dose: 40.0 mg/kg/injection, schedule: Q01DX009 (ip), vehicle: saline) was 93 % of control and the T/C (dose: 80.0 mg/kg/injection, schedule: Q01DX009 (ip), vehicle: saline) was 102 % of control. For the same compound, the T/C (dose: 160.0 mg/kg/injection, schedule: Q01DX009 (ip), vehicle: saline) was 95 % of control and the T/C (dose: 320.0 mg/kg/injection, schedule: Q01DX009 (ip), vehicle: saline) was 92 % of control.

For `O=C(Nc1ccc(C2=NCCCN2)cc1)Nc1cccc(C(=O)Nc2ccc(C3=NCCCN3)cc2)c1`, the T/C (dose: 1.25 mg/kg/injection, schedule: Q01DX Z (ip), vehicle: carboxymethylcellulose (CMC)) was 101 % of control, the T/C (dose: 2.5 mg/kg/injection, schedule: Q01DX Z (ip), vehicle: carboxymethylcellulose (CMC)) was 106 % of control and the T/C (dose: 5.0 mg/kg/injection, schedule: Q01DX Z (ip), vehicle: carboxymethylcellulose (CMC)) was 109 % of control. The T/C (dose: 7.5 mg/kg/injection, schedule: Q01DX Z (ip), vehicle: carboxymethylcellulose (CMC)) was 112 % of control, the T/C (dose: 10.0 mg/kg/injection, schedule: Q01DX Z (ip), vehicle: carboxymethylcellulose (CMC)) was 162 % of control and the T/C (dose: 15.0 mg/kg/injection, schedule: Q01DX Z (ip), vehicle: carboxymethylcellulose (CMC)) was 171 % of control. The T/C (dose: 20.0 mg/kg/injection, schedule: Q01DX Z (ip), vehicle: carboxymethylcellulose (CMC)) was 190 % of control, the T/C (dose: 30.0 mg/kg/injection, schedule: Q01DX Z (ip), vehicle: carboxymethylcellulose (CMC)) was 118 % of control and the T/C (dose: 40.0 mg/kg/injection, schedule: Q01DX Z (ip), vehicle: carboxymethylcellulose (CMC)) was 86 % of control. For the same compound, the T/C (dose: 62.0 mg/kg/injection, schedule: Q01DX Z (oral), vehicle: carboxymethylcellulose (CMC)) was 102 % of control, the T/C (dose: 125.0 mg/kg/injection, schedule: Q01DX Z (oral), vehicle: carboxymethylcellulose (CMC)) was 105 % of control and the T/C (dose: 250.0 mg/kg/injection, schedule: Q01DX Z (oral), vehicle: carboxymethylcellulose (CMC)) was 102 % of control. For the same compound, the T/C (dose: 500.0 mg/kg/injection, schedule: Q01DX Z (oral), vehicle: carboxymethylcellulose (CMC)) was 107 % of control.

With `NC(=O)c1ncc[nH]c1=O` the T/C (dose: 50.0 mg/kg/injection, schedule: Q01DX009 (ip), vehicle: Klucel (hydroxypropylcellulose) (HPC)) was 94 % of control, the T/C [6] was 97 % of control and the T/C (dose: 100.0 mg/kg/injection, schedule: Q01DX009 (ip), vehicle: Klucel (hydroxypropylcellulose) (HPC)) was 97 % of control. The T/C [8] was 103 % of control, the T/C [11] was 97 % of control and the T/C (dose: 200.0 mg/kg/injection, schedule: Q01DX009 (ip), vehicle: Klucel (hydroxypropylcellulose) (HPC)) was 105 % of control. The T/C [10] was 90 % of control, the T/C [12] was 95 % of control and the T/C [13] was 100 % of control.

`CC(=O)OC1CCC2(C)C(C1)CC(OC(C)=O)C1C2CCC2(C)C(C(C)CCC(=O)O)CCC12` (configuration not stated) was tested, and the T/C (dose: 100.0 mg/kg/injection, schedule: Q01DX001 (ip), vehicle: saline with Tween-80) was 92 % of control, the T/C (dose: 200.0 mg/kg/injection, schedule: Q01DX001 (ip), vehicle: saline with Tween-80) was 97 % of control and the T/C (dose: 400.0 mg/kg/injection, schedule: Q01DX001 (ip), vehicle: saline with Tween-80) was 92 % of control.

With `CCOP(=S)(OCC)N1c2ccccc2Sc2ccccc21` the T/C [14] was 92 % of control and the T/C [15] was 91 % of control.

With `CN(CC(O)CN)c1ccccc1` (configuration not stated) the T/C [7] was 102 % of control and the T/C [9] was 94 % of control.

For `CCOC(=O)/C=C(\C)N1CCCCC1`, the T/C [8] was 104 % of control and the T/C [10] was 100 % of control.

`CC1CCC(NC2=NCCO2)C1` (configuration not stated) was tested, and the T/C [14] was 96 % of control, the T/C [15] was 93 % of control and the T/C [16] was 93 % of control.

In the case of `Cc1cccc(N2CCC3(CC2)C(=O)NC(=S)NC3=O)c1`, the T/C [7] is reported as 104 % of control, the T/C [9] is reported as 94 % of control and the T/C [17] is reported as 98 % of control.

`CCN(CC)CCOC(=O)c1[nH]cnc1/N=N/N(C)C1CCCCC1` was tested, and the T/C (dose: 100.0 mg/kg/injection, schedule: Q01DX001 (ip), vehicle: other) was 104 % of control and the T/C (dose: 200.0 mg/kg/injection, schedule: Q01DX001 (ip), vehicle: other) was 93 % of control.

In the case of `Cc1cc(N(CCCl)CCCl)ccc1C=Nc1ccc2c(c1)nc(C)n2C`, the T/C (dose: 100.0 mg/kg/injection, schedule: Q04DX002 (ip), vehicle: Klucel (hydroxypropylcellulose) (HPC)) is reported as 93 % of control, the T/C (dose: 200.0 mg/kg/injection, schedule: Q04DX002 (ip), vehicle: Klucel (hydroxypropylcellulose) (HPC)) is reported as 112 % of control and the T/C (dose: 400.0 mg/kg/injection, schedule: Q04DX002 (ip), vehicle: Klucel (hydroxypropylcellulose) (HPC)) is reported as 97 % of control.

With `CSc1ccc(NS(=O)(=O)CCNC(=O)C(O)C(C)(C)CO)cc1` (configuration not stated) the T/C [3] was 100 % of control, the T/C [14] was 104 % of control and the T/C [4] was 103 % of control. For the same compound, the T/C [15] was 96 % of control, the T/C [5] was 92 % of control and the T/C [16] was 109 % of control.

For `CCN(CC)CCOC(=O)C1c2ccccc2Oc2ccccc21`, the T/C [1] was 102 % of control and the T/C [2] was 94 % of control.

`NC1CC2(CCC1=O)c1ccccc1-c1ccccc12` (configuration not stated) was tested, and the T/C [7] was 101 % of control and the T/C [17] was 104 % of control.

`CC1=CC(=O)N(NC(N)=O)C1=O` was tested, and the T/C [14] was 94 % of control, the T/C [4] was 90 % of control and the T/C [15] was 102 % of control. For the same compound, the T/C [16] was 105 % of control.

In the case of `C1CCC(NCCNC2CCCCC2)CC1`, the T/C (dose: 75.0 mg/kg/injection, schedule: Q01DX001 (ip), vehicle: saline) is reported as 98 % of control.

In the case of `CCc1nc(C)ncc1-c1ccc([N+](=O)[O-])cc1O`, the T/C [11] is reported as 97 % of control, the T/C [12] is reported as 97 % of control and the T/C [13] is reported as 91 % of control.

With `C=C(Cl)CC1(C(=O)OCC)CCN(S(=O)(=O)c2ccc(C)cc2)c2ccccc2C1=O` (configuration not stated) the T/C [11] was 94 % of control, the T/C [12] was 98 % of control and the T/C [13] was 88 % of control.
